# Laboratory results taken from patent publication US11965199B2, “21-hydroxylation of steroids” (EUROAPI, priority 2014, dated 2024).
# Read-outs that look alike come from different tables or passages of the source.
# Columns and labels:
# bovine CYP21 [1] = target: T1, bovine CYP21 (Bos taurus, UniProt P00191); experiment: Whole cell biotransformation (21-hydroxylation) in E. coli C43(DE3); format: cell-based
# T1 construct: lacking the hydrophobic anchor region, i.e. a truncation of 29 N-terminal amino acid residues; 6xHis (C); expressed in transfected cells
# T1 sequence (P00191 with tags, fused parts or gaps): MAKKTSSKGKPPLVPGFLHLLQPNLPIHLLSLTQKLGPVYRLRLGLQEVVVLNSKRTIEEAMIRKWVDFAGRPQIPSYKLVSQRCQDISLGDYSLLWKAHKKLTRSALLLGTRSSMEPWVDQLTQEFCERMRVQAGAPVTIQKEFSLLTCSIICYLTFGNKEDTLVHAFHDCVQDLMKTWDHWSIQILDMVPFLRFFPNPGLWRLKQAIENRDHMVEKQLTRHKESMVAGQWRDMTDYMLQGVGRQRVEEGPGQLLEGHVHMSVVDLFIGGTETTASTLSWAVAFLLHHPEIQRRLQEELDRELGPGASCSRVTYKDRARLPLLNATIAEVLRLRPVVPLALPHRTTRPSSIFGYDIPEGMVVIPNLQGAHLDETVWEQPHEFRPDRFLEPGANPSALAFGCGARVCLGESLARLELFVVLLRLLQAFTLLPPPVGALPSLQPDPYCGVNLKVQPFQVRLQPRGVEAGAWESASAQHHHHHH
# human CYP21 [2] = target: T2, human CYP21 (Homo sapiens, UniProt P08686); experiment: as above; format: cell-based; design: lacking the hydrophobic anchor region, i.e. a truncation of 29 N-terminal amino acid residues; 6xHis (C); expressed in transfected cells; host or cells: E. coli C43(DE3) transformed with pET17b-based bi-/tricistronic vectors (p21h_...) and pGro12
# T2 sequence (P08686 with tags, fused parts or gaps): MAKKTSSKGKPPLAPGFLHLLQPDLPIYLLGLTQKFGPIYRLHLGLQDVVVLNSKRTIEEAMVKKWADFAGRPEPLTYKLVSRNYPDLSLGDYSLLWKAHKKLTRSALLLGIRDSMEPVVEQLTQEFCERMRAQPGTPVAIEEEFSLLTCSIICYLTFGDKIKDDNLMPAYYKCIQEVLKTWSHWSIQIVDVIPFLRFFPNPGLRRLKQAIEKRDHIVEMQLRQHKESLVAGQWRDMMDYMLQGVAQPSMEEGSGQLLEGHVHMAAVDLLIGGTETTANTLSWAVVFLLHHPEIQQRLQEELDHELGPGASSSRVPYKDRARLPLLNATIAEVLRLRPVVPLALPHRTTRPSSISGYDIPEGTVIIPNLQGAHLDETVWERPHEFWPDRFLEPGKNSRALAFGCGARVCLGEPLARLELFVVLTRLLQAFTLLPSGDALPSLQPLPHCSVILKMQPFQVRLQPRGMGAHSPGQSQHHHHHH
# human CYP21 [3] = target: T2, human CYP21; experiment: In vitro substrate conversion with purified enzymes (reconstituted cytochrome P450 system); format: biochemical; design: lacking the hydrophobic anchor region, i.e. a truncation of 29 N-terminal amino acid residues; 6xHis (C); made in house; host or cells: E. coli C43(DE3), co-expressing GroEL/GroES from pGro12; details: defined buffer, NADPH regeneration system, electron transfer proteins of Table 2
# Protocol: (§1) Both enzymes were expressed in the E. coli strain C43(DE3) by coexpression of the E. coli chaperones GroEL/GroES encoded in the vector pGro12. These chaperones ensure a correct protein folding which is important for an incorporation of the heme prosthetic group. In FIG. 3 an SDS-PAGE and a CO difference spectrum of purified bovine CYP21 are shown. […] To determine the binding of medrane to both isozymes the binding constants (KD-values) were determined.
# (§2) For an efficient substrate conversion, both isoforms require an electron transfer system which consists of two parts, the cytochrome P450 enzyme itself and one or two electron transfer proteins which are essential for a hydroxylation reaction. Without these transfer proteins, no reaction will take place.
# (§3) For in vitro studies and a verification of a substrate conversion, all redox partners were purified.
# bovine CYP21 [4] = target: T1, bovine CYP21; experiment: as above; format: biochemical; details: defined buffer, NADPH regeneration system, electron transfer proteins of Table 2
# Protocol: as §1, §2, §3
# [5] = bovine CYP21 with redox partners, GroEL/GroES co-expressed
# [6] = human CYP21 with redox partners, GroEL/GroES co-expressed
Molecule,hydroxylation at position 21 (steroid conversion) (bovine CYP21 [1]; [5]),hydroxylation at position 21 (steroid conversion) (human CYP21 [2]; [6]),hydroxylation at position 21 (steroid conversion) (bovine CYP21 [1]),hydroxylation at position 21 (steroid conversion) (human CYP21 [2]),in vitro conversion of medrane to premedrol (human CYP21 [3]),in vitro conversion of medrane to premedrol (bovine CYP21 [4])
"CC(=O)[C@H]1CC[C@H]2[C@@H]3CCC4=CC(=O)CC[C@]4(C)[C@H]3CC[C@]12C [Progesterone, progesterone]",able to hydroxylate,able to hydroxylate,–,–,–,–
CC(=O)[C@H]1CC[C@H]2[C@@H]3CC[C@H]4CC(=O)CC[C@]4(C)[C@H]3CC[C@]12C [5α-dihydroprogesterone],–,–,able to hydroxylate,able to hydroxylate,–,–
"CC(=O)[C@@]1(O)CC[C@H]2[C@@H]3C[C@H](C)C4=CC(=O)C=C[C@]4(C)[C@H]3[C@@H](O)C[C@@]21C [Deltamedrane, deltamedrane]",able to hydroxylate,able to hydroxylate,–,–,–,–
"CC(=O)[C@@]1(O)CCC2C3C[C@H](C)C4=CC(=O)CC[C@]4(C)C3[C@@H](O)C[C@@]21C (stereo partly drawn) [Medrane, medrane]",able to hydroxylate,able to hydroxylate,–,–,very efficiently,very efficiently
medroxyprogesterone,–,–,able to hydroxylate,able to hydroxylate,–,–
